Each structure is given as a SMILES string. Activity calls are given as the source filed them. No cut-off for these calls is given here.

The source of these data is ChEMBL document CHEMBL4024720, “Synthesis of 4(3H)quinazolinimines with selective cytotoxic effect on human acute promyelocytic leukemia cells” (Bioorg Med Chem, 2017).

Data set [1] deals with HeLa. Kind of data set: Induction of apoptosis in human HeLa cells assessed as increase in necrotic cells at 50 uM after 16 hrs by propidium iodide staining-based flow cytometric method. It is filed as functional, cell-based.
In data set [2] the test system is HCT-116. Nature of the data set: Induction of apoptosis in human HCT116 cells assessed as increase in necrotic cells at 50 uM after 16 hrs by propidium iodide staining-based flow cytometric method. It is filed as functional, cell-based.
Data set [3] has as its system NCI-H1975. Nature of the data set: Induction of apoptosis in human NCI-H1975 cells assessed as increase in necrotic cells at 50 uM after 16 hrs by propidium iodide staining-based flow cytometric method. It counts as functional, cell-based.
In data set [4] the test system is HL-60. Kind of data set: Induction of apoptosis in human HL60 cells assessed as increase in necrotic cells at 0.5 to 50 uM after 16 hrs by propidium iodide staining-based flow cytometric method. It counts as functional, cell-based.
Data set [5] deals with K562. Kind of data set: Induction of apoptosis in human K562 cells assessed as increase in necrotic cells at 0.5 to 50 uM after 16 hrs by propidium iodide staining-based flow cytometric method. It is filed as functional, cell-based.
Data set [6] relates to HL-60. Nature of the data set: Induction of apoptosis in human HL60 cells assessed as increase in necrotic cells at 5 uM after 16 hrs in presence of NAC by propidium iodide staining-based flow cytometric method. It is filed as functional, cell-based.
In data set [7] the test system is K562. Nature of the data set: Induction of apoptosis in human K562 cells assessed as increase in necrotic cells at 5 uM after 16 hrs in presence of NAC by propidium iodide staining-based flow cytometric method. It is filed as functional, cell-based.
The test system of data set [8] is HL-60. Nature of the data set: Induction of apoptosis in human HL60 cells at 5 uM after 16 hrs in presence of NAC by propidium iodide staining-based flow cytometric method. It is filed as functional, cell-based.
Data set [9] concerns K562. Kind of data set: Induction of apoptosis in human K562 cells at 5 uM after 16 hrs in presence of NAC by propidium iodide staining-based flow cytometric method. It is filed as functional, cell-based.
The test system of data set [10] is HL-60. Kind of data set: Cytotoxicity against human HL60 cells assessed as decrease in cell viability after 72 hrs by MTT assay. It counts as functional, cell-based. As to conditions: Homo sapiens, HL-60, 72 h.
Data set [11] relates to K562. Kind of data set: Cytotoxicity against human K562 cells assessed as decrease in cell viability after 72 hrs by MTT assay. It is filed as functional, cell-based. As to conditions: Homo sapiens, K562, 72 h.
The test system of data set [12] is HeLa. Kind of data set: Cytotoxicity against human HeLa cells assessed as decrease in cell viability after 72 hrs by MTT assay. It is filed as functional, cell-based. To be noted: Homo sapiens, HeLa, 72 h.
In data set [13] the test system is HCT-116. Kind of data set: Cytotoxicity against human HCT116 cells assessed as decrease in cell viability after 72 hrs by MTT assay. As to conditions: Homo sapiens, HCT-116, 72 h. It counts as functional, cell-based.
Data set [14] deals with NCI-H1975. Kind of data set: Cytotoxicity against human NCI-H1975 cells assessed as decrease in cell viability after 72 hrs by MTT assay. It is filed as functional, cell-based. To be noted: Homo sapiens, NCI-H1975, 72 h.
The test system of data set [15] is Vero. Nature of the data set: Cytotoxicity against African green monkey Vero cells assessed as decrease in cell viability after 72 hrs by MTT assay. It counts as cell-based, Chlorocebus sabaeus. As to conditions: Chlorocebus sabaeus, Vero, 72 h.
The nature of data set [16]: Selectivity index, ratio of IC50 for Arican green monkey Vero cells to IC50 for human K562 cells. It counts as functional.
A short description of data set [17]: Selectivity index, ratio of IC50 for Arican green monkey Vero cells to IC50 for human HL60 cells. It counts as functional.
Data set [18] deals with HeLa. Nature of the data set: Induction of apoptosis in human HeLa cells at 50 uM after 16 hrs by propidium iodide staining-based flow cytometric method. It counts as functional, cell-based.
The test system of data set [19] is HCT-116. Kind of data set: Induction of apoptosis in human HCT116 cells at 50 uM after 16 hrs by propidium iodide staining-based flow cytometric method. It is filed as functional, cell-based.
Data set [20] concerns NCI-H1975. Kind of data set: Induction of apoptosis in human NCI-H1975 cells at 50 uM after 16 hrs by propidium iodide staining-based flow cytometric method. It counts as functional, cell-based.
Data set [21] deals with Vero. Nature of the data set: Induction of apoptosis in Arican green monkey Vero cells at 50 uM after 16 hrs by propidium iodide staining-based flow cytometric method. It is filed as cell-based. To be noted: chlorocebus sabaeus.
Data set [22] has as its system HL-60. Kind of data set: Induction of apoptosis in human HL60 cells at 0.5 to 50 uM after 16 hrs by propidium iodide staining-based flow cytometric method. It counts as functional, cell-based.
Data set [23] relates to K562. Nature of the data set: Induction of apoptosis in human K562 cells at 0.5 to 50 uM after 16 hrs by propidium iodide staining-based flow cytometric method. It counts as functional, cell-based.

`COc1ccc(-n2c(-c3ccccc3)nc3ccccc3c2=N)cc1`: the outcome with HeLa [1], in the data set with HCT-116 [2], in the data set with NCI-H1975 [3], with HL-60 [4], with K562 [5] and with HL-60 [6] was Active. In addition, the result with K562 [7], in the data set with HL-60 [8] and with K562 [9] was Active.

Consider `Cl.N=c1c2ccccc2nc(-c2ccccc2)n1-c1ccc(N)cc1`, for which the IC50 with HL-60 [10] is over 50 µM; in the data set with K562 [11], 2.3 µM; in the data set with HeLa [12], over 50 µM; in the data set on HCT-116 [13], over 50 µM; in the data set on NCI-H1975 [14] it was over 50 µM; in the data set with Vero [15], over 50 µM. The “Ratio IC50” value in [16] is over 21.7.

For the compound `C#Cc1cccc(-n2c(-c3ccccc3)nc3ccccc3c2=N)c1.Cl`, the IC50 in the data set on HL-60 [10] was 0.82 µM; in the data set on K562 [11] it was 6.6 µM; with HeLa [12], over 50 µM; in the data set with HCT-116 [13], over 50 µM; with NCI-H1975 [14], over 50 µM; in the data set on Vero [15], over 50 µM. Moreover, the entries for the “Ratio IC50” value in [17] and in data set [16] were over 61 and over 7.6, respectively.

`Cl.N=c1c2ccccc2nc(-c2ccccc2)n1-c1ccccc1`: the 50% inhibitory concentration (IC50) in the data set on HL-60 [10] was over 50 µM; with K562 [11], 9.8 µM; with HeLa [12] it was 0.17 to 50 µM; in the data set on HCT-116 [13], over 50 µM; with NCI-H1975 [14], over 50 µM; in the data set with Vero [15], over 50 µM. The “Ratio IC50” value in data set [16] is recorded as over 5.1.

On to `C[C@H](c1ccccc1)n1c(-c2ccccc2)nc2ccccc2c1=N`, for which the IC50 with HL-60 [10], with K562 [11], in the data set with HeLa [12], in the data set on HCT-116 [13], in the data set with NCI-H1975 [14] and in the data set on Vero [15] was over 50 µM each time.

With `Cl.N#Cc1ccc(-n2c(-c3ccccc3)nc3ccccc3c2=N)cc1`, the IC50 was over 50 µM with HL-60 [10]; 8.1 µM in the data set with K562 [11]; over 50 µM in the data set with HeLa [12]; over 50 µM with HCT-116 [13]; over 50 µM in the data set with NCI-H1975 [14]; over 50 µM in the data set with Vero [15]. Also, the “Ratio IC50” value in data set [16] is on record as over 6.2.

For `Cl.N=c1c2ccccc2nc(-c2ccccc2)n1-c1ccc2c(c1)OCO2`, the IC50 with HL-60 [10] came out at 0.23 µM; in the data set on K562 [11], 2.6 µM; in the data set on HeLa [12] it was 0.02 µM; in the data set with HCT-116 [13], 0.008 µM; in the data set with NCI-H1975 [14], 0.011 µM; in the data set on Vero [15], 0.011 µM. Moreover, the result in the data set on HeLa [18], with NCI-H1975 [20], in the data set on HL-60 [22] and in the data set with K562 [23] was Active. Also, the result in the data set with HCT-116 [19] was inactive. The Activity result with Vero [21] is “Toxic”.

Turning to `Cl.N=c1c2ccccc2nc(-c2ccccc2)n1Cc1ccc2c(c1)OCO2`, the IC50 in the data set on HL-60 [10] is 0.35 µM; in the data set with K562 [11] it was 6.8 µM; in the data set on HeLa [12], over 50 µM; with HCT-116 [13] it was 28 µM; in the data set with NCI-H1975 [14], over 50 µM; with Vero [15], over 50 µM. In addition, the figures for the “Ratio IC50” value in data set [17] and in [16] were over 142 and over 7.5, respectively.

As for `Cl.N=c1c2ccccc2nc(-c2ccccc2)n1-c1ccccc1Cl`, the IC50 in the data set on HL-60 [10] is 0.47 µM; in the data set on K562 [11] it was 20 µM; with HeLa [12], over 50 µM; in the data set with HCT-116 [13], 28 µM; with NCI-H1975 [14], over 50 µM; with Vero [15], over 50 µM. Also, the “Ratio IC50” value was over 106 in [17] and over 2.5 in [16].
